Assay results taken from US8501728B2, “Substituted heteroarylamide oxazepinopyrimidone derivatives” (priority 2008, dated 2013).
Like-named read-outs stand apart in the source and are kept apart here.

Molecular target: T1, commercial GSK3beta (Millipore) (Homo sapiens, UniProt P49841)
T1 construct: purchased Millipore
Assay: biochemical
Description: In a fourth protocol: 7.5 μM of prephosphorylated GS1 peptide and 10 μM ATP (containing 300,000 cpm of ^33P-ATP) were incubated in 50 mM Hepes, pH 7.2, 1 mM DTT, 1 mM MgCl2, 1 mM EGTA, 0.01% Tween 20 buffer for 90 minutes at room temperature in the presence of commercial GSK3beta (Millipore) (total reaction volume: 100 microliters).
Inhibitors were solubilised in DMSO (final solvent concentration in the reaction medium, 1%).
The reaction was stopped with 100 microliters of a solution made of 25 g polyphosphoric acid (85% P2O5), 126 ml 85% H3PO4, H2O to 500 ml and then diluted to 1:100 before use. An aliquot of the reaction mixture was then transferred to Whatman P81 cation exchange filters and rinsed with the solution described above. Incorporated ^33P radioactivity was determined by liquid scintillation spectrometry.
(Woodgett, J. R. (1989) Analytical Biochemistry 180, 237-241.

[1] = protocol 4: 7.5 μM GS1 peptide, 10 μM ATP, 90 minutes at room temperature, read-out: GSK3β inhibitory activity IC50

T1 sequence (P49841 whole entry): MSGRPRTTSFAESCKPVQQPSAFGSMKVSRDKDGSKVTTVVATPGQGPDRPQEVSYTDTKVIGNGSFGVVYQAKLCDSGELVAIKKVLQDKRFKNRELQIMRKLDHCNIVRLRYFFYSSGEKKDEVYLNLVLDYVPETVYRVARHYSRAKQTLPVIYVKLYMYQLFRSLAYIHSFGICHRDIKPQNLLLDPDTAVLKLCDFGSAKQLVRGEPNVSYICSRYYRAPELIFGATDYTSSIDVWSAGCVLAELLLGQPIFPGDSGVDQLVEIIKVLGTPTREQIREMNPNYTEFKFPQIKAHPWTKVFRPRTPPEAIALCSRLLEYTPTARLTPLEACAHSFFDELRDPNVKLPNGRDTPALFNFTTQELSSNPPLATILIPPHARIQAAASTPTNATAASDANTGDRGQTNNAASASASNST

`O=C(NC1COCCn2c1nc(-c1ccncn1)cc2=O)c1cc(F)cc2c1OCOC2` (racemic) [compound 12, (+/−)-6-Fluoro-4H-benzo[1,3]dioxine-8-carboxylic acid (4-oxo-2-pyrimidin-4-yl-5,6,8,9-tetrahydro-4H-7-oxa-1,4-a-diaza-benzocyclohepten-9-yl)-amide] gave an IC50 [1] of 0.005 µM.
`CSc1ncc(Cl)c(C(=O)NC2COCCn3c2nc(-c2ccncn2)cc3=O)n1` (racemic) [compound 15, (+/−)-5-Chloro-2-methylsulfanyl-pyrimidine-4-carboxylic acid (4-oxo-2-pyrimidin-4-yl-5,6,8,9-tetrahydro-4H-7-oxa-1,4-a-diaza-benzocyclohepten-9-yl)-amide] gave an IC50 [1] of 0.031 µM.
For `O=C(NC1COCCn2c1nc(-c1ccncn1)cc2=O)c1ccccn1` (racemic) [compound 17, (+/−)-Pyridine-2-carboxylic acid (4-oxo-2-pyrimidin-4-yl-5,6,8,9-tetrahydro-4H-7-oxa-1,4-a-diaza-benzocyclohepten-9-yl)-amide], the IC50 was 0.015 µM.
In the case of `CSc1ncc(Br)c(C(=O)NC2COCCn3c2nc(-c2ccncn2)cc3=O)n1` (racemic) [compound 18, (+/−)-5-Bromo-2-methylsulfanyl-pyrimidine-4-carboxylic acid (4-oxo-2-pyrimidin-4-yl-5,6,8,9-tetrahydro-4H-7-oxa-1,4-a-diaza-benzocyclohepten-9-yl)-amide], the IC50 [1] is reported as 0.052 µM.
